{
  "source": "patent US20100129343A1",
  "about": "“Use Of A Compound For Enhancing The Expression Of Membrane Proteins On The Cell Surface” (Axentis Pharma AG, priority 2004, published 2010)",
  "type_in_all_cases": "cell-based",
  "key": {"CFTR-ΔF508 [1]": {"test_system": "CFTR-ΔF508", "experiment": "Immunoblot for GFP-tagged CFTR-ΔF508 expressed in HEK293 cells", "details": "16 h, endoglycosidase H treated extract", "protocol": "HEK293 cells (1*10^6 cells) were transfected with plasmids encoding CFTR or CFTR-ΔF508 (GFP-tagged) and/or co-transfected with effector plasmids. After 16h, the cells were treated with the varying concentrations of compounds. After 24h, the cells were harvested in phosphate-buffered saline, lysed by a freeze-thaw cycle and homogenized by sonication. The homogenate was resuspended in reducing Laemmli sample buffer (50 mM Tris.HCl, pH 6.8, 20% glycerol, 0.1% bromphenol blue, 2% SDS and 20 mM dithiothreitol); aliquots (15% of the original culture) were resolved on a denaturing polyacrylamide gel (monomer concentration in the stacking gel and in the running gel 4 and 8% respectively) and electrophoretically transferred to a nitrocellulose membrane. Immunodetection was done with an antiserum directed against GFP as the primary antibody and an anti-rabbit IgG coupled to horseradish peroxidase as the secondary antibody.\nIn a first example, Membranes from transfected cells were prepared and immunoblotted for GFP-tagged CFTR or CFTR-ΔF508, respectively (by using an antibody directed against the fluorescent protein).\nThe membrane extract was also treated endoglycosidase H. The rationale for this experiment is as follows: membrane proteins are core glycosylated in the endoplasmatic reticulum. Core gylcosylation is sensitive to endoglycosidase H. If the protein has reached the Golgi (and then trafficked to the plasma membrane), it acquires additional sugar moieties and becomes resistant to endoglycosidase H. It is evident from lane 3 in FIG. 6 that endoglycosidase H treatment reduces the apparent size of CFTR; thus, the bulk of the protein is still in the ER. The following lanes examine the expression of CFTR-ΔF508 (all extracts were treated with endoglycosidase H): lane 4 is the control, that is cells expressing CFTR-ΔF508; in lanes 5, 6, 7 and 8 cells expressing CFTR-ΔF508 were treated overnight (i.e. for 16 h) with 100 nM MG132, 20 μM kifunensine, 1 μM and 100 nM bortezomib, respectively."}, "CFTR-ΔF508 [2]": {"test_system": "CFTR-ΔF508", "experiment": "FACS monitoring of GFP-tagged CFTR-ΔF508 expression in HEK293 cells", "protocol": "(§1) Cultured HEK293 cells were transfected with plasmids encoding CFTR or CFTR-ΔF508 (GFP-tagged) and/or co-transfected with plasmids encoding USP4 (or an appropriate control plasmid) by using the CaPO4-precipitation method. Sixteen hours after transfection the cells were treated with varying concentrations of compounds. At a specific time point (here 24 h) the cells are trypsinized, fixed in ethanol, permeabilized and stained with propidium iodide (PI). The stained cells are subjected to FACS analysis\nBecause CFTR is tagged with a fluorescent protein, expression in individual cells can be monitored by fluorescence activated cell sorting (FACS). By contrast with fluorescence microscopy (where individual cells are picked), FACS allows to survey the entire cell population. In addition, FACS has the advantage that it allows for reasonable sample throughput; finally, automation and scale-up is readily possible. […]\nThe original data set is shown on the right hand side of the figures, respectively (see e.g. FIG. 7c): the x-axis is the propidium iodide fluorescence (note that the scale is linear). The y-axis is the GFP-fluorescence (=fluorescence associated with CFTR; note that the scale is logarithmic) and each dot corresponds to a cell. […]"}, "HEK293 cells": {"test_system": "HEK293 cells", "experiment": "FACS propidium iodide staining: cell cycle distribution / apoptosis of HEK293 cells", "protocol": "as §1\nTransiently transfected HEK293 cells were fixed in ethanol 24 h after transfection as mentioned above and then stained with propidium iodide to label the DNA: the rationale was to examine the distribution of cells in the cell cycle (=to see if the expression of CFTR or of CFTR-ΔF508 was toxic or if the compounds employed killed the cells/drove them into apoptosis).\nOne can plot the cell counts against the propidium iodide fluorescence of the transfected cells (such as shown in, for example, FIG. 7b): This gives a peak of cells (denoted by M1) that have a 2n content of DNA (G1-cells), a shoulder of cells that have a DNA content of larger than 2n (denoted by M3 and representing cells that are in S-phase) and a second peak of cells that have a DNA content of 4n (denoted by M2 and representing cells in G2 and M-phase)."}, "A2A-receptor": {"molecular_target": "T1, A2A-receptor (Rattus norvegicus, UniProt P30543)", "T1 construct": "PC12 cells (that endogenously express the A2A-receptor); endogenous in cells; host or cells: PC12 (rat pheochromocytoma), membranes", "T1 sequence (P30543 whole entry)": "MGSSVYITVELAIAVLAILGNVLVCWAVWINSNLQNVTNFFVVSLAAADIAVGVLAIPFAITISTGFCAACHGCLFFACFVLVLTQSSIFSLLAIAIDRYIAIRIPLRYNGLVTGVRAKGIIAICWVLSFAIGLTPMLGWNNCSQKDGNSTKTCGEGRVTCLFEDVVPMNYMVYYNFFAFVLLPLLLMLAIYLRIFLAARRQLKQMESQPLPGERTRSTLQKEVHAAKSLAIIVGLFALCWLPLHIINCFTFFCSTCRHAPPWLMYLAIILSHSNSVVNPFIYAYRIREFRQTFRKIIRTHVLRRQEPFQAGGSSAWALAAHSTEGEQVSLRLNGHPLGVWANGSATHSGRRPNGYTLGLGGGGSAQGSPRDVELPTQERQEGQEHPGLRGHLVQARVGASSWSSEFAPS", "experiment": "[3H]ZM241385 saturation binding to membranes from PC12 cells (endogenous A2A-receptor)", "details": "100 μM chloroquine for 3h", "protocol": "Membranes were prepared from PC12 cells, which had been incubated in the presence or in the absence of 50 μM MG132 or 100 μM chloroquine for 3h, and were incubated in buffer containing the indicated concentrations of [^3H]ZM241385 in the presence of 100 μM GTPγS.\nMembranes (100 μg/assay) that had been prepared from PC12 cells or HEK293 cells transiently transfected with the appropriate plasmids were incubated in a final volume of 0.3 ml containing 50 mM Tris.HCl (pH 8.0), 1 mM EDTA, 5 mM MgCl2, 8 μg/ml adenosine deaminase and concentrations of [^3H]ZM241385 (specific activity ˜20 Ci/mmol) covering the range of 0.2 to 20 nM in the presence of 100 μM GTPγS (Klinger et al., 2002). After 60 min at room temperature, the reaction was terminated by rapid filtration over glass fiber filters. Nonspecific binding was determined in the presence of 10 μM XAC and amounted to 40% at the highest concentration of [^3H]ZM241385. The data points were fitted by non-linear regression to the equation describing a rectangular hyperbola. Assays were performed in duplicate."}},
  "note": "Entries after “also recorded” stand apart in the source; their conditions may differ.",
  "data": [
    {"smiles": "O=C1N[C@@H]2[C@@H](O)[C@@H](O)[C@H](O)[C@@H](CO)N2C1=O", "note": "[kifunensine]", "values": [
      {"measurement": "accumulation of CFTR-ΔF508 (intensity of staining vs control lane)", "setting": "CFTR-ΔF508 [1]; 20 μM kifunensine", "result": "led to the accumulation of CFTR-ΔF508"}
    ]},
    {"smiles": "CC(C)C[C@H](NC(=O)[C@H](Cc1ccccc1)NC(=O)c1cnccn1)B(O)O", "note": "[Bortezomib, N-(2-pyrazine)carbonyl-L-phenylalanine-L-leucine-boronic acid]", "values": [
      {"measurement": "accumulation of CFTR-ΔF508 (intensity of staining vs control lane)", "setting": "CFTR-ΔF508 [1]; 100 nM bortezomib", "result": "led to the accumulation of CFTR-ΔF508; also recorded: more effective than 1 μM bortezomib"},
      {"measurement": "accumulation of CFTR-ΔF508 (intensity of staining vs control lane)", "setting": "CFTR-ΔF508 [1]; 1 μM bortezomib", "result": "led to the accumulation of CFTR-ΔF508"},
      {"measurement": "CFTR-ΔF508-associated fluorescence", "setting": "CFTR-ΔF508 [2]; 10 nM bortezomib", "result": "expression of CFTR is increased; also recorded: substantially increases the level of CFTR-ΔF508"},
      {"measurement": "CFTR-ΔF508-associated fluorescence", "setting": "CFTR-ΔF508 [2]; 100 nM bortezomib", "result": "expression of CFTR is increased"},
      {"measurement": "cell cycle distribution", "setting": "HEK293 cells; 10 nM bortezomib, CFTR-ΔF508 expressing cells", "result": "essentially the same as the one shown in control cells"},
      {"measurement": "peak of the G1-cells (M1)", "setting": "HEK293 cells; 100 nM Bortezomib, CFTR-ΔF508 expressing cells", "result": "greatly reduced"},
      {"measurement": "number of cells with low propidium iodide fluorescence (apoptotic)", "setting": "HEK293 cells; 100 nM bortezomib", "result": "number of cells with low propidium iodide fluorescence increases"},
      {"measurement": "number of cells with low propidium iodide fluorescence (apoptotic)", "setting": "HEK293 cells; 1 μM Bortezomib", "result": "number of cells with low propidium iodide fluorescence increases"},
      {"measurement": "peak of the G1-cells (M1)", "setting": "HEK293 cells; 1 μM Bortezomib, CFTR-ΔF508 expressing cells", "result": "greatly reduced"},
      {"measurement": "cell mortality / apoptosis, general statement", "setting": "HEK293 cells; within the therapeutic window (Bortezomib), very small dosage (MG132)", "result": "no increased cell mortality is observed"}
    ]},
    {"smiles": "CCN(CC)CCCC(C)Nc1ccnc2cc(Cl)ccc12", "note": "(stereo not drawn) [choloroquine, chloroquine]", "values": [
      {"measurement": "A2A-receptor levels", "setting": "A2A-receptor", "result": "did not affect the A2A-receptor levels"}
    ]}
  ]
}
